Measured values: the NIST ThermoML archive (doi:10.1016/j.jct.2011.06.012)

Test: xn = mol fraction of the nth substance listed
Settings: Liquid, Bellows volumetry

CC(C)C [2-methylpropane] + O=C=O
mass density [kg/m3]
Settings | 280 K | 300 K | 320 K | 340 K | 360 K
3000 kPa, x2 = 0.2482 | 611.63 | – | – | – | –
3000 kPa, x2 = 0.4718 | 651.84 | – | – | – | –
5000 kPa, x2 = 0.2482 | 615.96 | – | 552.16 | – | –
5000 kPa, x2 = 0.4718 | 658.57 | 614.91 | 560.46 | – | –
5000 kPa, x2 = 0.7506 | 741.3 | – | – | – | –
10000 kPa, x2 = 0.2482 | 625.46 | – | 569.21 | – | 501.22
10000 kPa, x2 = 0.4718 | 672.04 | 634.66 | 592.64 | 543.45 | 481.3
10000 kPa, x2 = 0.7506 | 765.85 | – | 614.39 | – | –
20000 kPa, x2 = 0.2482 | 641.52 | – | 593.88 | – | 542.86
20000 kPa, x2 = 0.4718 | 693.75 | 662.67 | 630.32 | 596.56 | 560.5
20000 kPa, x2 = 0.7506 | 800.45 | – | 697.56 | – | 574.95
30000 kPa, x2 = 0.2482 | 655.06 | – | 611.98 | – | 568.79
30000 kPa, x2 = 0.4718 | 710.92 | 683.38 | 655.66 | 627.77 | 598.86
30000 kPa, x2 = 0.7506 | 826.02 | – | 740.51 | – | 649.75
40000 kPa, x2 = 0.2482 | 665.95 | – | 627.15 | – | 588.52
40000 kPa, x2 = 0.4718 | 725.26 | 700.1 | 675.36 | 650.8 | 625.7
40000 kPa, x2 = 0.7506 | 846.38 | – | 771.26 | – | 694.72
50000 kPa, x2 = 0.2482 | 676.07 | – | 639.69 | – | 604.55
50000 kPa, x2 = 0.4718 | 737.44 | 714.21 | 691.66 | 669.07 | 646.76
50000 kPa, x2 = 0.7506 | 863.38 | – | 795.16 | – | –
60000 kPa, x2 = 0.2482 | 684.83 | – | 650.61 | – | –
60000 kPa, x2 = 0.4718 | 748.54 | 726.58 | 705.67 | 684.42 | –
60000 kPa, x2 = 0.7506 | 878.75 | – | 815.43 | – | –
70000 kPa, x2 = 0.2482 | 693.01 | – | 660.32 | – | –
70000 kPa, x2 = 0.4718 | 758.63 | 737.54 | 717.84 | 697.86 | –
70000 kPa, x2 = 0.7506 | 892.04 | – | 832.58 | – | –
80000 kPa, x2 = 0.2482 | 700.46 | – | 669.23 | – | –
80000 kPa, x2 = 0.4718 | 767.66 | 747.72 | 728.73 | 709.95 | –
80000 kPa, x2 = 0.7506 | 904.12 | – | 847.76 | – | –
90000 kPa, x2 = 0.2482 | 707.4 | – | 677.43 | – | –
90000 kPa, x2 = 0.4718 | 775.73 | 756.68 | 738.7 | 720.77 | –
90000 kPa, x2 = 0.7506 | 915.3 | – | 861.33 | – | –
100000 kPa, x2 = 0.2482 | 713.94 | – | 685.01 | – | –
100000 kPa, x2 = 0.4718 | 783.73 | 764.82 | 748.11 | 730.63 | –
100000 kPa, x2 = 0.7506 | 925.43 | – | 873.81 | – | –
120000 kPa, x2 = 0.2482 | 725.79 | – | 698.63 | – | –
120000 kPa, x2 = 0.4718 | 797.65 | 780.34 | 764.51 | 748.22 | –
120000 kPa, x2 = 0.7506 | 944.22 | – | 895.88 | – | –
140000 kPa, x2 = 0.2482 | 736.43 | – | 710.75 | – | –
140000 kPa, x2 = 0.4718 | 810.05 | 794.03 | 778.96 | 764.19 | –
140000 kPa, x2 = 0.7506 | 960.61 | – | 915.09 | – | –
160000 kPa, x2 = 0.2482 | 746.22 | – | 721.58 | – | –
160000 kPa, x2 = 0.4718 | 821.36 | 805.98 | 791.76 | 777.55 | –
160000 kPa, x2 = 0.7506 | 975.64 | – | 932.24 | – | –
180000 kPa, x2 = 0.2482 | 755.07 | – | 731.49 | – | –
180000 kPa, x2 = 0.4718 | 831.97 | 817 | 803.87 | 790.06 | –
180000 kPa, x2 = 0.7506 | 989.13 | – | 947.81 | – | –
200000 kPa, x2 = 0.2482 | 763.28 | – | 740.45 | – | –
200000 kPa, x2 = 0.4718 | 841.63 | 827.43 | 814.43 | 801.25 | –
200000 kPa, x2 = 0.7506 | 1001.91 | – | 962.05 | – | –
